Measured values published in PMC5651918, “Evolving stability and pH-dependent activity of the high redox potential Botrytis aclada laccase for enzymatic fuel cells” (Scientific Reports, 2017).

Biological target: T1, Botrytis aclada laccase (BaL WT) (Botrytis aclada, UniProt H8ZRU2)
T1 construct: BaL cDNA, secreted recombinant from Pichia pastoris X-33 (pGAPZ A, pBaLac)
T1 sequence (H8ZRU2 20-580): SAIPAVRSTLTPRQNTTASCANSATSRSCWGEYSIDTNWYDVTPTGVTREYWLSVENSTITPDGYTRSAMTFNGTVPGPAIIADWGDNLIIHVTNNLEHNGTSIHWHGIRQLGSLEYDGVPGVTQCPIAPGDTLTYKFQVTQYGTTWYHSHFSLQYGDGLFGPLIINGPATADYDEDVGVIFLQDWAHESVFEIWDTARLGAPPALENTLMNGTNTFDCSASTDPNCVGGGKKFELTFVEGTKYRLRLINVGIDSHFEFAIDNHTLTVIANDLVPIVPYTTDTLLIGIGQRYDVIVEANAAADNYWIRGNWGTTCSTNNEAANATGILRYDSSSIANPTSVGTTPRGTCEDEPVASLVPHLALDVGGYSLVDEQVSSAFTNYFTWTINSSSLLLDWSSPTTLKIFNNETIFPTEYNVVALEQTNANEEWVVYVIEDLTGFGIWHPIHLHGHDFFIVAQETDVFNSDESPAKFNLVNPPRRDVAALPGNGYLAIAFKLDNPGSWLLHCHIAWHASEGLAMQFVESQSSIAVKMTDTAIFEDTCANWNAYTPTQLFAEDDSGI
Test: steady-state photometric kinetics, Michaelis-Menten fit
Type: biochemical
Conditions: pH 3.0, 4.5 and 6.0; apparent constants

Compound	KM
CCn1c(=NN=c2sc3cc(S(=O)(=O)O)ccc3n2CC)sc2cc(S(=O)(=O)O)ccc21 [ABTS, 2,2′-azino-bis(3-ethylbenzothiazoline-6-sulfonic acid)]	apparent steady-state kinetic constants were determined for the two substrates DMP and ABTS
COc1cccc(OC)c1O [DMP, 2,6-dimethoxyphenol]	apparent steady-state kinetic constants were determined for the two substrates DMP and ABTS
